Assay results taken from the supplement of paper PMC10307832.

Columns and labels:
Experiment in all cases: relative viability (nuclei count vs DMSO), 5 days (fraction); higher = more cells survive
Bexarotene = compound: C=C(c1ccc(C(=O)O)cc1)c1cc2c(cc1C)C(C)(C)CCC2(C)C [Bexarotene]
Procedure, shortened: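 Viability here means nuclei in treated wells divided by nuclei in vehicle wells, reported as the median across plates. Only plates with control CV below 25% and at least one doubling passed. Lung cancer cell lines in 1536-well plates were exposed to five √10-spaced library-drug doses for 5 days and counted from 4× Hoechst images in MetaXpress.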

Bexarotene + Bortezomib = compound: C=C(c1ccc(C(=O)O)cc1)c1cc2c(cc1C)C(C)(C)CCC2(C)C [Bexarotene] + CC(C)C[C@H](NC(=O)[C@H](Cc1ccccc1)NC(=O)c1cnccn1)B(O)O [Bortezomib] (partner 0.002 µM)
Procedure, shortened: (§1)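 Values are medians from duplicate plates. Each reflects relative viability, defined as the nuclei count of treated wells over that of vehicle wells. Lung cancer cell lines in 1536-well plates were pin-tool dosed one day after seeding with one drug alone or with a fixed anchor-drug dose plus five library-drug doses (not always all listed) in √10 steps, then fixed, stained and imaged at 4× after 5 days.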

Bexarotene + Navitoclax = compound: C=C(c1ccc(C(=O)O)cc1)c1cc2c(cc1C)C(C)(C)CCC2(C)C [Bexarotene] + CC1(C)CCC(c2ccc(Cl)cc2)=C(CN2CCN(c3ccc(C(=O)NS(=O)(=O)c4ccc(N[C@H](CCN5CCOCC5)CSc5ccccc5)c(S(=O)(=O)C(F)(F)F)c4)cc3)CC2)C1 [Navitoclax] (partner 0.5 µM)
Procedure, shortened: as §1

Bexarotene + Foretinib = compound: C=C(c1ccc(C(=O)O)cc1)c1cc2c(cc1C)C(C)(C)CCC2(C)C [Bexarotene] + COc1cc2c(Oc3ccc(NC(=O)C4(C(=O)Nc5ccc(F)cc5)CC4)cc3F)ccnc2cc1OCCCN1CCOCC1 [Foretinib] (partner 0.25 µM)
Procedure, shortened: as §1

Bexarotene + Lapatinib = compound: C=C(c1ccc(C(=O)O)cc1)c1cc2c(cc1C)C(C)(C)CCC2(C)C [Bexarotene] + CS(=O)(=O)CCNCc1ccc(-c2ccc3ncnc(Nc4ccc(OCc5cccc(F)c5)c(Cl)c4)c3c2)o1 [Lapatinib] (partner 2 µM)
Procedure, shortened: as §1

Bexarotene + Pictilisib = compound: C=C(c1ccc(C(=O)O)cc1)c1cc2c(cc1C)C(C)(C)CCC2(C)C [Bexarotene] + CS(=O)(=O)N1CCN(Cc2cc3nc(-c4cccc5[nH]ncc45)nc(N4CCOCC4)c3s2)CC1 [Pictilisib] (partner 1 µM)
Procedure, shortened: as §1

Bexarotene + Crizotinib = compound: C=C(c1ccc(C(=O)O)cc1)c1cc2c(cc1C)C(C)(C)CCC2(C)C [Bexarotene] + C[C@@H](Oc1cc(-c2cnn(C3CCNCC3)c2)cnc1N)c1c(Cl)ccc(F)c1Cl [Crizotinib] (partner 1 µM)
Procedure, shortened: as §1

Bexarotene + Linsitinib = compound: C=C(c1ccc(C(=O)O)cc1)c1cc2c(cc1C)C(C)(C)CCC2(C)C [Bexarotene] + C[C@]1(O)C[C@@H](c2nc(-c3ccc4ccc(-c5ccccc5)nc4c3)c3c(N)nccn32)C1 [Linsitinib] (partner 1 µM)
Procedure, shortened: as §1

Bexarotene + Alpelisib = compound: C=C(c1ccc(C(=O)O)cc1)c1cc2c(cc1C)C(C)(C)CCC2(C)C [Bexarotene] + Cc1nc(NC(=O)N2CCC[C@H]2C(N)=O)sc1-c1ccnc(C(C)(C)C(F)(F)F)c1 [Alpelisib] (partner 2 µM)
Procedure, shortened: as §1

Bexarotene + Vorinostat = compound: C=C(c1ccc(C(=O)O)cc1)c1cc2c(cc1C)C(C)(C)CCC2(C)C [Bexarotene] + O=C(CCCCCCC(=O)Nc1ccccc1)NO [Vorinostat] (partner 1 µM)
Procedure, shortened: as §1

Bexarotene + Olaparib = compound: C=C(c1ccc(C(=O)O)cc1)c1cc2c(cc1C)C(C)(C)CCC2(C)C [Bexarotene] + O=C(c1cc(Cc2n[nH]c(=O)c3ccccc23)ccc1F)N1CCN(C(=O)C2CC2)CC1 [Olaparib] (partner 8 µM)
Procedure, shortened: as §1

IA-LM
relative viability (Bexarotene; 0.08 µM): 0.876
relative viability (Bexarotene; 0.253 µM): 0.906
relative viability (Bexarotene; 0.8 µM): 0.806
relative viability (Bexarotene; 2.53 µM): 0.774
relative viability (Bexarotene; 8 µM): 0.831
relative viability (Bexarotene + Bortezomib; first compound 0.08 µM): 0.683
relative viability (Bexarotene + Bortezomib; first compound 0.253 µM): 0.697
relative viability (Bexarotene + Bortezomib; first compound 0.8 µM): 0.596
relative viability (Bexarotene + Bortezomib; first compound 2.53 µM): 0.662
relative viability (Bexarotene + Bortezomib; first compound 8 µM): 0.518
relative viability (Bexarotene + Navitoclax; first compound 0.08 µM): 0.6
relative viability (Bexarotene + Navitoclax; first compound 0.253 µM): 0.785
relative viability (Bexarotene + Navitoclax; first compound 0.8 µM): 0.724
relative viability (Bexarotene + Navitoclax; first compound 2.53 µM): 0.603
relative viability (Bexarotene + Navitoclax; first compound 8 µM): 0.664
relative viability (Bexarotene + Foretinib; first compound 0.08 µM): 1.03
relative viability (Bexarotene + Foretinib; first compound 0.253 µM): 1.14
relative viability (Bexarotene + Foretinib; first compound 0.8 µM): 0.98
relative viability (Bexarotene + Foretinib; first compound 2.53 µM): 0.935
relative viability (Bexarotene + Foretinib; first compound 8 µM): 0.93
relative viability (Bexarotene + Lapatinib; first compound 0.253 µM): 0.773
relative viability (Bexarotene + Lapatinib; first compound 0.8 µM): 0.68
relative viability (Bexarotene + Lapatinib; first compound 2.53 µM): 0.536
relative viability (Bexarotene + Lapatinib; first compound 8 µM): 0.694
relative viability (Bexarotene + Pictilisib; first compound 0.08 µM): 0.335
relative viability (Bexarotene + Pictilisib; first compound 0.253 µM): 0.314
relative viability (Bexarotene + Pictilisib; first compound 0.8 µM): 0.476
relative viability (Bexarotene + Pictilisib; first compound 2.53 µM): 0.313
relative viability (Bexarotene + Pictilisib; first compound 8 µM): 0.319
relative viability (Bexarotene + Crizotinib; first compound 0.253 µM): 1.03
relative viability (Bexarotene + Crizotinib; first compound 0.8 µM): 0.676
relative viability (Bexarotene + Crizotinib; first compound 2.53 µM): 0.678
relative viability (Bexarotene + Crizotinib; first compound 8 µM): 0.62
relative viability (Bexarotene + Linsitinib; first compound 0.08 µM): 0.682
relative viability (Bexarotene + Linsitinib; first compound 0.253 µM): 0.581
relative viability (Bexarotene + Linsitinib; first compound 0.8 µM): 0.523
relative viability (Bexarotene + Linsitinib; first compound 2.53 µM): 0.603
relative viability (Bexarotene + Linsitinib; first compound 8 µM): 0.51
relative viability (Bexarotene + Alpelisib; first compound 0.08 µM): 0.771
relative viability (Bexarotene + Alpelisib; first compound 0.253 µM): 0.702
relative viability (Bexarotene + Alpelisib; first compound 0.8 µM): 0.67
relative viability (Bexarotene + Alpelisib; first compound 2.53 µM): 0.581
relative viability (Bexarotene + Alpelisib; first compound 8 µM): 0.669
relative viability (Bexarotene + Vorinostat; first compound 0.08 µM): 0.79
relative viability (Bexarotene + Vorinostat; first compound 0.253 µM): 0.817
relative viability (Bexarotene + Vorinostat; first compound 0.8 µM): 0.756
relative viability (Bexarotene + Vorinostat; first compound 2.53 µM): 0.718
relative viability (Bexarotene + Vorinostat; first compound 8 µM): 0.7
relative viability (Bexarotene + Olaparib; first compound 0.08 µM): 0.752
relative viability (Bexarotene + Olaparib; first compound 0.253 µM): 0.707
relative viability (Bexarotene + Olaparib; first compound 0.8 µM): 0.675
relative viability (Bexarotene + Olaparib; first compound 2.53 µM): 0.576
relative viability (Bexarotene + Olaparib; first compound 8 µM): 0.63
